# Data reported in patent publication EP1203770A1 (priority 1992, dated 1994).
# Entries after “also recorded” stand apart in the source; their conditions may differ.
# Tests used:
# HIV-1 protease = target: T1, HIV-1 protease (Human immunodeficiency virus type 1 group M subtype B, UniProt P04585); assay: In vitro HIV protease inhibitory assay (HIV Protease FITC Assay); format: biochemical
# T1 construct: The protease (or proteinase), consisting of only 99 amino acids, is among the smallest enzymes known
# Procedure, shortened: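 Biotin/FITC-labelled peptide substrate cleaved by HIV-1 protease for 1 h at room temperature in the dark, in 0.1 M sodium acetate pH 5.5, 1.0 M NaCl, 0.05% NP-40. Uncleaved substrate captured on avidin beads and separated by filtration; fluorescence gave % inhibition.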
# [1] = test system: testosterone 5α-reductase; assay: In vitro testosterone 5α-reductase inhibitor assay; format: biochemical; details: at a dose of at least 0.1 mM; dog and rat prostates
# Description: The following five (5) compounds of the present invention were tested in an in vitro testosterone 5α-reductase inhibitor assay: 3-(α-Ethylbenzyl)-6-(α-ethylphenethyl)-4-hydroxy-2H-pyran-2-one; 6-(1-Benzyl-propyl)-3-(cyclopropyl-phenyl-methyl)-4-hydroxy-pyran-2-one; 3-(α-Ethylbenzyl)-6-(α-ethylbenzyl)-4-hydroxy-2H-pyran-2-one; 3-(α-Ethylbenzyl)-6-phenethyl-4-hydroxy-2H-pyran-2-one; 4-Hydroxy-3-(1-phenylpropyl)-6-[1-[(tetrahydro-2H-pyran-3-yl)methyl]propyl]-2H-pyran-2-one. This assay is very similar to those described in the following references, except for the use of dog and rat prostates in place of human prostates: Proc. Natl. Acad. Sci. USA, Vol. 90: 5277-5281 (1993); J. Steroid. Biochem. Molec. Biol., Vol. 44, No. 2, pp. 121-131 (1993). All five (5) compounds had activity in this assay at a dose of at least 0.1 mM.
# HIV-1IIIB = assay: Inhibition of retroviral replication in infected human T-cell lines (MT4, H9); format: cell-based; details: e.g., MT4 and H9, infected with HIV-1IIIB
# Description: Several compounds of the present invention, such as 3-(alpha-ethylbenzyl)-6-(alpha-ethylphenethyl)-4-hydroxy-2H-pyran-2-one, were tested in known human cell lines, such as human T-cell lines, e.g., MT4 and H9, which were infected with HIV-1IIIB, and certain of these compounds were further tested in peripheral blood mononuclear cells (PBMC), which were infected with HIV-1JRCSF (a clinical isolate).
# [2] = Four week oral drug safety and toxicity study in beagle dogs (prostate size and weight); format: in vivo
# Description: Daily oral doses were divided into two (2) equal doses with at least seven (7) hours between the morning and afternoon dose. Parameters evaluated included twice daily clinical observations; daily evaluation of food and water consumption; twice weekly body weights; pretest and dosage day (dd) 15 or 16 and 24 or 25 electrocardiograms; pretest and dd 23 or 24 ophthalmology examinations; pretest and dd 1, 8, 14, 21 and 28 plasma drug levels; pretest and dd 8, 14, and 28 hemograms and serum chemistries; pretest and dd 14 and 28 urinalyses; terminal body weights, gross necropsy observations and absolute and relative organ weights; and histopathologic evaluation of organs and tissues.
# [3] = HIV-1 Dose 1.000 uM, read-out: HIV-1 Protease % Inhib
# [4] = HIV-1 Dose 10.000 uM, read-out: HIV-1 Protease % Inhib
# [5] = HIV-1 Dose 100.000 uM, read-out: HIV-1 Protease % Inhib
# [6] = male dogs, group 2, 50 mg/kg/day oral, 28 days, n=3
# [7] = male dogs, group 3, 100 mg/kg/day oral, 28 days, n=3
# [8] = male dogs, group 4, 200 mg/kg/day oral, 28 days, n=3
# [9] = male dogs, group 5, 400 mg/kg/day oral, 28 days, n=3
# [10] = repeat study, 400 mg/kg/day, 4 dogs
# [11] = repeat study, male dogs, group 7, 400 mg/kg/day, n=4
compound,measurement,setting,value
"CCC(c1ccccc1)c1c(O)cc(CCc2ccccc2)oc1=O (stereo not drawn) [Example 3, 3-(α-ethylbenzyl)-6-phenethyl-4-hydroxy-2H-Pyran-2-one]",inhibition at 1 µM,HIV-1 protease; [3],19%
same,inhibition at 10 µM,HIV-1 protease; [4],67.4%
same,activity in testosterone 5α-reductase inhibitor assay,[1],had activity
"CCC(Cc1ccccc1)c1cc(O)c(C(CC)c2ccccc2)c(=O)o1 (stereo not drawn) [Example 13, 3-(α-ethylbenzyl)-6-(αethylphenethyl)-4-hydroxy-2H-Pyran-2-one]",IC50,HIV-1 protease,1300 nM
same,inhibition at 1 µM,HIV-1 protease; [3],79.5%
same,inhibition at 10 µM,HIV-1 protease; [4],92%
same,inhibition at 100 µM,HIV-1 protease; [5],72%
same,retroviral replication,HIV-1IIIB,found to inhibit retroviral replication
same,activity in testosterone 5α-reductase inhibitor assay,[1],had activity
same,"light microscopic examination of testes, adrenals and pituitaries",[2]; high dose versus control,did not show drug-related changes
same,Absolute Weight (mean prostate weight),[2]; [6],8.87 GMs
same,Relative Weight* (mean prostate weight),[2]; [6],0.088 % body weight
same,Absolute Weight (mean prostate weight),[2]; [7],7.55 GMs
same,Relative Weight* (mean prostate weight),[2]; [7],0.074 % body weight
same,Absolute Weight (mean prostate weight),[2]; [8],4.58 GMs
same,Relative Weight* (mean prostate weight),[2]; [8],0.046 % body weight
same,Absolute Weight (mean prostate weight),[2]; [9],4.43 GMs
same,Relative Weight* (mean prostate weight),[2]; [9],0.044 % body weight
same,prostate size and weight,"[2]; male dogs, oral 50 to 400 mg/kg/day, 28 days",dose-related decrease in prostate size and weight; also recorded: dose related decrease in prostate size and weight
same,dogs with marked decreases of prostate weight,[2]; [10],1/4
same,high dose dogs with lower absolute and relative prostate weights than controls,[2]; [10],2/4
same,Absolute Weight (mean prostate weight),[2]; [11],5.65 GMs
same,Relative Weight* (mean prostate weight),[2]; [11],0.055 % body weight
"CCC(Cc1ccccc1)c1cc(O)c(C(c2ccccc2)C2CC2)c(=O)o1 (centres unmarked) [Example 86, 6-(1-Benzyl-propyl)-3-(cyclopropyl-phenyl-methyl)-4-hydroxy-pyran-2-one]",inhibition at 1 µM,HIV-1 protease; [3],58.1%
same,inhibition at 10 µM,HIV-1 protease; [4],83%
same,inhibition at 100 µM,HIV-1 protease; [5],55.3%
same,activity in testosterone 5α-reductase inhibitor assay,[1],had activity
"CCC(CC1CCCOC1)c1cc(O)c(C(CC)c2ccccc2)c(=O)o1 (centres unmarked) [Example 135, 4-Hydroxy-3-(1-phenylpropyl)-6-[1-[(tetrahydro-2H-pyran-3-yl)methyl]propyl]-2H-pyran-2-one]",inhibition at 0.123 µM,"HIV-1 protease; HIV-1 Dose 0.123 uM, read-out: HIV-1 Protease % Inhib",12.4%
same,inhibition at 0.37 µM,"HIV-1 protease; HIV-1 Dose 0.370 uM, read-out: HIV-1 Protease % Inhib",26.5%
same,inhibition at 1.1 µM,"HIV-1 protease; HIV-1 Dose 1.100 uM, read-out: HIV-1 Protease % Inhib",65.6%
same,inhibition at 3.3 µM,"HIV-1 protease; HIV-1 Dose 3.300 uM, read-out: HIV-1 Protease % Inhib",87.9%
same,inhibition at 10 µM,HIV-1 protease; [4],103%
same,inhibition at 30 µM,"HIV-1 protease; HIV-1 Dose 30.000 uM, read-out: HIV-1 Protease % Inhib",99.9%
same,Ki,HIV-1 protease; read-out: HIV-1 FITC Ki,45 nM
same,activity in testosterone 5α-reductase inhibitor assay,[1],had activity
"Dimethyl 3-[(4-hydroxy-2-oxo-6-phenyl-2H-1-pyran-3-yl)(3-nitrophenyl)methyl] -1,3-propandioate [Example 29]",HIV-1 Protease % Inhib,HIV-1 protease; HIV-1 Dose 1.000 uM,<10%
same,HIV-1 Protease % Inhib,HIV-1 protease; HIV-1 Dose 10.000 uM,<10%
same,HIV-1 Protease % Inhib,HIV-1 protease; HIV-1 Dose 100.000 uM,32.16%
"Dimethyl 3-[(4-hydroxy-2-oxo-6-phenyl-2H-1-pyran-3-yl)(4-nitrophenyl)methyl] - 1,3-propandioate [Example 28]",HIV-1 Protease % Inhib,HIV-1 protease; HIV-1 Dose 1.000 uM,<10%
same,HIV-1 Protease % Inhib,HIV-1 protease; HIV-1 Dose 10.000 uM,15.07%
same,HIV-1 Protease % Inhib,HIV-1 protease; HIV-1 Dose 100.000 uM,76.68%
